According to US20080269131A1, “Inhibitors of Akt Activity” (SMITHKLINE BEECHAM CORPORATION, priority 2005, published 2008):
≈ marks a conversion by molar mass, not a printed value. Where a name gives a salt, the structure may show the parent alone.

Legend:
[1] = system: HFF (normal human foreskin fibroblast); experiment: Methylene Blue Growth Inhibition assay, HFF; format: cell-based; conditions: 72 h, HFF normal cells, 3 days
Experimental: (§1) Cellular Assays: Methylene Blue Growth Inhibition assay
(§2) Tumor cell lines used in this assay were BT474 (human breast carcinoma) and LNCaP (lymph node metastasis of prostate cancer). HFF (normal human foreskin fibroblast) was also included. All cell lines were cultured in RPMI 1640 media (Invitrogen Corporation 22400-071) containing 10% Fetal Bovine Serum (FBS) at 37° C. in a humidified 5% CO2 incubator. Cells were harvested using trypsin/EDTA, counted using a hemacytometer and plated in 96-well tissue culture plates (Costar 35-3075), 100 uL per well, at the following densities: BT474 15,000 cells/well, LNCaP 5,000 cells/well and HFF 5,000 cells/well. 10 mM stocks of compounds in DMSO were serially diluted in DMSO through nine 3-fold dilutions in 96-well plates (Costar Corning 3363), and stored at −80 C. The next day, compound dilutions were thawed and 4 uL of each transferred to 662 uL RPMI 1640+100 ug/mL gentamicin, resulting in twice the final required test concentrations. 100 uL of compounds diluted in RPMI 1640 were added to all cell lines. The final concentration of DMSO in all wells, including controls, was 0.3%. Cells were incubated at 37 C, 5% CO2 for 3 days. Medium was removed by aspiration. Cell biomass was estimated by staining cells with 80 uL methylene blue (Sigma M9140, 0.5% in 50:50 ethanol:water), and incubating at room temperature for 1 hour. Stain was aspirated and the plates rinsed by immersion in water, then air-dried. Stain was released from cells by adding 100 uL of solubilizing solution (1% N-lauroyl sarcosine, sodium salt, Sigma L5125, in PBS) and incubating at room temperature for at least 30 minutes. Plates were shaken and the optical density at 620 nm was measured on a microplate reader. Percent inhibition of cell growth was calculated relative to vehicle-treated control wells. Concentration of compound that inhibits 50% of cell growth (IC50) was interpolated using non-linear regression (Levenberg-Marquadt) and the equation, y=Vmax*(1−(x̂n/K̂n+x̂n)))+Y2. [Ref: Mager, M. E. (1972) Data Analysis in Biochemistry and Biophysics. New York: Academic Press]

[2] = system: LNCaP (lymph node metastasis of prostate cancer); experiment: Methylene Blue Growth Inhibition assay, LNCaP; format: cell-based; conditions: Homo sapiens, 72 h, 3 days
Experimental: as §1, §2

[3] = Solubility in 50 mM phosphate buffer at pH 7.4; format: physicochemical; conditions: for solubility: 50 mM phosphate buffer, pH 7.4, aqueous buffer; for Solubility (statement in words): suitability for IV dosage forms, solubility in water
[4] = system: BT474 (human breast carcinoma); experiment: Methylene Blue Growth Inhibition assay, BT474; format: cell-based; conditions: BT-474, 72 h, BT474, 3 days
Experimental: as §1, §2

[5] = biological target: FL AKT1 (Homo sapiens, UniProt P31749); experiment: Full-length AKT enzyme assay (substrate phosphorylation, SPA); format: biochemical; conditions: 4 uM ATP
[6] = biological target: T1, FL AKT2 (Homo sapiens, UniProt P31751); experiment: as above; format: biochemical; conditions: 4 uM ATP
T1 construct: 0.008 uM, FL AKT2 in the above full-length AKT enzyme assay
T1 sequence (P31751 whole entry): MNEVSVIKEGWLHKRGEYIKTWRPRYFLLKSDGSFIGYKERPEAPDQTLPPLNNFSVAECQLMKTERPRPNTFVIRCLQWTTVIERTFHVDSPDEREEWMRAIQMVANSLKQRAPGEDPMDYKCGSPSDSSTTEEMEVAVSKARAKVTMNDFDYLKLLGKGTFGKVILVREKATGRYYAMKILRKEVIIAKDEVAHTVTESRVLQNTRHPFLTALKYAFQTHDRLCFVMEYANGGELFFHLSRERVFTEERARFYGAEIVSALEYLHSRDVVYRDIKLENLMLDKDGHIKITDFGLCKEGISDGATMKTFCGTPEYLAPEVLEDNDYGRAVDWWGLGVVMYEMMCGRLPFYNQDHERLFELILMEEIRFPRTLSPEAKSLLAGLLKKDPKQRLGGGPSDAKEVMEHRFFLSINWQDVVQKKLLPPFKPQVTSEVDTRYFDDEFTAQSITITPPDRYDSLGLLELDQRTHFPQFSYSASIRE

FL AKT1, sequence (P31749 whole entry): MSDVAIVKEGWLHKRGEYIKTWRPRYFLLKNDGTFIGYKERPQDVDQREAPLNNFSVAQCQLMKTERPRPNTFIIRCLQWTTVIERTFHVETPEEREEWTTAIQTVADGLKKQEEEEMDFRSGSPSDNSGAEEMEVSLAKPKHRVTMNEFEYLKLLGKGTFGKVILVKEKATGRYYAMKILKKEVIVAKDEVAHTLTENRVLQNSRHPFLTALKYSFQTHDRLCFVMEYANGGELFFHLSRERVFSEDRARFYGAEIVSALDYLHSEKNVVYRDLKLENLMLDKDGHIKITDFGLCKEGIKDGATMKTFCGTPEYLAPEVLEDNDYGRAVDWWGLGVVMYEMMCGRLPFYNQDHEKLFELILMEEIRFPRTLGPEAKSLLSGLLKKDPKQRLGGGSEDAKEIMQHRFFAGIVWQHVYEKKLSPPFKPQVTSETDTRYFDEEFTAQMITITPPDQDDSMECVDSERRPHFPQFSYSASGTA

Row | SMILES | IC50 [1] | IC50 [2] | solubility [3] | IC50 [4] | Solubility (statement in words) [3] | IC50 [5] | IC50 [6]
1 | CCn1c(-c2nonc2N)nc2c(C#CC(C)(C)O)ncc(OCCCCN)c21.O=C(O)C(F)(F)F [Compound W, 4-[7-[(4-aminobutyl)oxy]-2-(4-amino-1,2,5-oxadiazol-3-yl)-1-ethyl-1H-imidazo[4,5-c]pyridin-4-yl}-2-methyl-3-butyn-2-ol trifluoroacetate] | 22100 nM | 836 nM | 210 µM | 8210 nM |  |  | 
2 | CCn1c(-c2nonc2N)nc2c(C#CC(C)(C)O)ncc(OCC3CCNCC3)c21.O=C(O)C(F)(F)F [Compound Y, 4-{2-(4-amino-1,2,5-oxadiazol-3-yl)-1-ethyl-7-[(4-piperidinylmethyl)oxy]-1H-imidazo[4,5-c]pyridin-4-yl}-2-methyl-3-butyn-2-ol trifluoroacetate] | > 30000 nM | 217 nM | 159 µM | 2590 nM |  |  | 
3 | CCn1c(-c2nonc2N)nc2c(C#CC(C)(C)O)ncc(OCCC3CSCCN3)c21 (stereo not shown) [Example 3, 4-(2-(4-amino-1,2,5-oxadiazol-3-yl)-1-ethyl-7-{[2-(3-thiomorpholinyl)ethyl]oxy}-1H-imidazo[4,5-c]pyridin-4-yl)-2-methyl-3-butyn-2-ol] | 3590 nM | 7 nM | 7 µM (≈ 3.2 µg/mL) | 26 nM | suitable for formulation into dosage forms for IV administration |  | 
4 | CCn1c(-c2nonc2N)nc2c(C#CC(C)(C)O)ncc(OCCCNCCc3ccc(OC)cc3)c21 [Compound Z, 4-(2-(4-amino-1,2,5-oxadiazol-3-yl)-1-ethyl-7-{[3-({2-[4-(methyloxy)phenyl]ethyl}amino)propyl]oxy}-1H-imidazo[4,5-c]pyridin-4-yl)-2-methyl-3-butyn-2-ol] | 5510 nM | 48 nM | 37 µM (≈ 19.2 µg/mL) | 266 nM |  |  | 
5 | CCn1c(-c2nonc2N)nc2cncc(OC3CCNCC3)c21.O=C(O)C(F)(F)F [Compound U, 4-[1-ethyl-7-(piperidin-4-yloxy)-1H-imidazo[4,5-c]pyridine-2-yl]-furazan-3-ylamine trifluoroacetate] | 6470 nM |  | 200 µM | 4510 nM |  |  | 
6 | CCn1c(-c2nonc2N)nc2c(C#CC(C)(C)O)ncc(OCC[C@@H]3CCCN3)c21 [Example 1, 4-[2-(4-amino-1,2,5-oxadiazol-3-yl)-1-ethyl-7-({2-[(2S)-2-pyrrolidinyl]ethyl}oxy)-1H-imidazo[4,5-c]pyridin-4-yl]-2-methyl-3-butyn-2-ol] | 12600 nM | 52 nM | 222 µM (≈ 94.5 µg/mL) | 176 nM | suitable for formulation into dosage forms for IV administration | 2 nM | 8 nM
7 | CCn1c(-c2nonc2N)nc2c(-c3ccccc3)ncc(OCC(O)CN3CCOCC3)c21 (stereo not shown) [Compound S, 1-{[2-(4-amino-1,2,5-oxadiazol-3-yl)-1-ethyl-4-phenyl-1H-imidazo[4,5-c]pyridin-7-yl]oxy}-3-(4-morpholinyl)-2-propanol trifluoroacetate] | > 30000 nM | 7770 nM |  | > 30000 nM |  |  | 
8 | CCn1c(-c2nonc2N)nc2c(-c3ccccc3)ncc(OCCN3CCOCC3)c21 [Compound T, 4-(1-ethyl-7-{[2-(4-morpholinyl)ethyl]oxy}-4-phenyl-1H-imidazo[4,5-c]pyridin-2-yl)-1,2,5-oxadiazol-3-amine trifluoroacetate] | 18900 nM | > 30000 nM |  | > 30000 nM |  |  | 
9 | CCn1c(-c2nonc2N)nc2c(-c3ccccc3)ncc(OCC3CCCNC3)c21.O=C(O)C(F)(F)F (stereo not shown) [Compound V, 4-{1-ethyl-4-phenyl-7-[(3-piperidinylmethyl)oxy]-1H-imidazo-[4,5-c]pyridin-2-yl}-1,2,5-oxadiazol-3-amine trifluoroacetate] | 570 nM | 1640 nM | 9 µM | 1870 nM |  |  | 
10 | CCn1c(-c2nonc2N)nc2c(C#CC(C)(C)O)ncc(OCC[C@@H]3CCCCN3)c21 [Example 2, 4-[2-(4-amino-1,2,5-oxadiazol-3-yl)-1-ethyl-7-({2-[(2S)-2-Piperidinyl]ethyl}oxy)-1H-imidazo[4,5-c]pyridin-4-yl]-2-methyl-3-butyn-2-ol] | 14200 nM | 65 nM | 200 µM (≈ 87.9 µg/mL) | 255 nM | suitable for formulation into dosage forms for IV administration |  | 
11 | CCn1c(-c2nonc2N)nc2c(C#CC(C)(C)O)ncc(OCCCN)c21.O=C(O)C(F)(F)F [Compound X, 4-{2-(4-amino-1,2,5-oxadiazol-3-yl)-7-[(3-aminopropyl)oxy]-1-ethyl-1H-imidazo[4,5-c]pyridin-4-yl}-2-methyl-3-butyn-2-ol trifluoroacetate] | 18100 nM | 258 nM | 173 µM | 241 nM |  |  | 
12 | CCn1c(-c2nonc2N)nc2c(-c3ccccc3)ncc(OCCCN3CCOCC3)c21 [Compound R, 4-(1-ethyl-7-{[3-(4-morpholinyl)propyl]oxy}-4-phenyl-1H-imidazo[4,5-c]pyridin-2-yl)-1,2,5-oxadiazol-3-amine trifluoroacetate] | 19900 nM | 1420 nM |  | 17700 nM |  |  | 
